According to PubChem BioAssay (NCI):
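Cells were grown in 96-well plates and exposed to each compound for 48 hours at five concentrations; endpoints were interpolated linearly between bracketing concentrations, or set to the highest concentration if not reached. TGI is the concentration that stops growth completely.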 Where a SMILES comes first, the peptide text is derived from it. The star is where a group is joined. X36 = O=C(c1ccc(-c2ccc(Cl)cc2Cl)o1)*

Tests used:
Experiment in all cases: NCI tumour cell line growth inhibition, 48 h
A498 renal = system: A498 renal
BT-549 breast = system: BT-549 breast
HCC-2998 colon = system: HCC-2998 colon
MCF7 breast = system: MCF7 breast
MDA-MB-231 breast = system: MDA-MB-231 breast
MOLT-4 leukemia = system: MOLT-4 leukemia
NCI-H460 lung = system: NCI-H460 lung
OVCAR-5 ovarian = system: OVCAR-5 ovarian
SF-295 CNS = system: SF-295 CNS
SNB-75 CNS = system: SNB-75 CNS
SW-620 colon = system: SW-620 colon
T-47D breast = system: T-47D breast
UACC-257 melanoma = system: UACC-257 melanoma

SMILES | TGI (A498 renal) [µM] | TGI (BT-549 breast) [µM] | TGI (HCC-2998 colon) [µM] | TGI (MCF7 breast) [µM] | TGI (MDA-MB-231 breast) [µM] | TGI (MOLT-4 leukemia) [µM] | TGI (NCI-H460 lung) [µM] | TGI (OVCAR-5 ovarian) [µM] | TGI (SF-295 CNS) [µM] | TGI (SNB-75 CNS) [µM] | TGI (SW-620 colon) [µM] | TGI (T-47D breast) [µM] | TGI (UACC-257 melanoma) [µM]
O=C(O)CC[N+]1=CCC(c2ccccc2)(c2ccccc2)O1 | > 100 | > 100 | > 100 | > 100 | > 100 | > 100 | > 100 | > 100 | > 100 | > 100 | > 100 | > 100 | > 100
OCC1OC(n2cnc3c(Cl)nc(Nc4ccccc4)nc32)CC1O (stereo unspecified) | > 100 | > 100 | 44.7 | > 100 | > 100 | > 100 | > 100 | > 100 | > 100 | > 100 | > 100 | > 100 | > 100
CC(=O)O[C@H]1CC[C@@]2(C)C(=CC[C@H]3[C@@H]4C[C@H](N5CCCC5)[C@H](OC(C)=O)[C@@]4(C)CC[C@@H]32)C1 | > 100 | > 100 | > 100 | > 100 | > 100 | > 100 | > 100 | > 100 | > 100 | > 100 | > 100 | > 100 | > 68.2
Cc1ccc2c(=O)cc(-c3cccs3)[nH]c2n1 | > 100 | > 100 | > 83.2 | > 100 | > 100 | > 100 | > 100 | > 100 | > 69.6 | 63.3 | > 30.1 | > 67.7 | > 100
CCC(C)C(NC(=O)CNC(=O)C(Cc1ccccc1)NC(=O)C1CCCN1C(=O)c1ccc(-c2ccc(Cl)cc2Cl)o1)C(=O)OC (stereo unspecified) (X36-PFGI-OMe; configuration not given here) | 54.4 | > 100 | 64 | > 100 | > 100 | > 100 | > 100 | > 100 | > 100 | 69.4 | > 100 | > 100 | 67.2
Nc1c(Cl)ncnc1N[C@@H]1C[C@H]1CO | > 100 | > 100 | > 100 | > 100 | > 100 | > 100 | > 100 | > 100 | > 100 | > 100 | > 100 | > 100 | > 100
O=c1[nH]/c(=C/c2ccc(OCc3ccccc3)cn2)c(=O)[nH]/c1=C/c1ccc(O)cc1 | > 76.7 | 8.63 | 5.21 | > 100 | > 100 | 1.65 | > 100 | > 100 | > 100 | 3.05 | > 100 | > 63.8 | > 100
COc1ccc(Nc2nc(NS(=O)(=O)c3cc(C)c(Cl)cc3S)n[nH]2)cc1 | > 100 | > 100 | > 100 | > 100 | > 100 | > 100 | > 100 | > 100 | > 100 | > 100 | > 100 | > 100 | > 100
CC1=NN(c2ccc(S(=O)(=O)O)cc2)C2(C1)SCC(=O)N2c1nc2ccccc2s1 (stereo unspecified) | > 100 | > 100 | > 100 | > 100 | > 100 | > 100 | > 100 | > 100 | > 100 | > 100 | > 100 | > 100 | > 100
O=C(O)c1ccc(S(=O)(=O)c2ccccc2[N+](=O)[O-])cc1 | > 10 | > 10 | > 10 | > 10 | > 10 | > 10 | > 10 | > 10 | > 10 | > 10 | > 10 | > 10 | > 10
O=c1oc2ccccc2c(Nc2ccc3c(c2)Oc2ccccc2O3)c1[N+](=O)[O-] | 59 | 64.9 | 62.4 | 47.7 | 38.3 | > 100 | > 100 | > 100 | 40.5 | 30.2 | 74.9 | 79.1 | 91.2
CC(=O)N1N=C(c2ccc3ccccc3c2O)CC1C(=O)c1ccco1 (stereo unspecified) | > 100 | > 100 | 55.5 | > 100 | > 100 | 24.4 | > 100 | > 100 | > 100 | > 100 | > 100 | > 100 | > 100
